Where two headings read alike, the source gives them in different places.
Experiments:
[1] = test system: CHO-K1 cells; experiment: Toxicity in RRA (loss of luciferase signal); details: toxicity = loss of signal (<0.75 fold increase)
Method: The beta amyloid inhibitory activity of the compounds of the present invention was determined using the Repressor Release Assay (RRA).
“Fold Increase” refers to the amount of luciferase activity (measured in relative light units) over diluent control. “SEM” refers to the standard error of the mean for fold increase.

[2] = test system: beta amyloid production; experiment: Repressor Release Assay (RRA); assay type: cell-based; details: for fold induction at 20 µg/mL: Conc 20 μg/ml; for fold induction at 3 µg/mL: Conc 3 μg/ml
Method in brief: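 Read-out is luciferase luminescence (RLU) after 36-48 h duplicate compound exposure of transfected CHO-K1 cells. These cells carry transiently introduced APP-lacI and pRSVO-luc DNA. Diluent control was 25 mM Hepes/1% DMSO; toxicity recorded as binary score (1 non-toxic, 0 toxic).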

[3] = Conc 10 μg/ml, luciferase activity over diluent control, read-out: APPI Fold Increase
[4] = Conc 20 μg/ml, 1=non-toxic, 0=toxic
[5] = luciferase activity (RLU) over diluent control, read-out: APPI Fold Increase
[6] = luciferase activity over diluent control, read-out: APPI Fold Increase

SMILES: CC[C@H](C)[C@H](NS(=O)(=O)c1ccc(F)cc1)C(O)c1ccc(OC)cc1 (stereo partly drawn) [Example 139, 4-fluoro-N-{(1S,2S)-1-[hydroxy(4-methoxyphenyl)methyl]-2-methylbutyl}benzenesulfonamide]
- (%)APPI Toxicity ([1]; Conc 10 μg/ml): 1 (1=non-toxic)
- fold induction at 10 µg/mL [2, 3]: 2.12

SMILES: CCCCCC(O)(CCCCC)[C@@H](NS(=O)(=O)c1ccccc1F)[C@@H](C)CC [Example 262, 2-fluoro-N-{(1S)-2-hydroxy-1-[(1S)-1-methylpropyl]-2-pentylheptyl}benzenesulfonamide]
- (%)APPI Toxicity ([1]; Conc 10 μg/ml): 1 (1=non-toxic)
- fold induction at 10 µg/mL [2, 3]: 2.2

SMILES: CCC[C@H](CC)[C@@H](CO)NS(=O)(=O)c1ccc(Cl)cc1 [Example 55, 4-chloro-N-[(1S,2S)-2-ethyl-1-(hydroxymethyl)pentyl]benzenesulfonamide]
- (%)APPI Toxicity [1, 4]: 1 (1=non-toxic)
- fold induction at 20 µg/mL [2, 5]: 5.6

SMILES: CC[C@H](C)[C@H](NS(=O)(=O)c1ccc(Cl)cc1)C(O)c1ccc(Cl)cc1 (stereo partly drawn) [Example 177, 4-chloro-N-{(1S,2S)-1-[(4-chlorophenyl) (hydroxy)methyl]-2-methylbutyl}benzenesulfonamide]
- (%)APPI Toxicity ([1]; Conc 10 μg/ml): 1 (1=non-toxic)
- fold induction at 10 µg/mL [2, 3]: 1.95

SMILES: CC[C@H](C)[C@H](NS(=O)(=O)c1cccc(Cl)c1)C(O)(CC(C)C)CC(C)C [Example 252, 3-chloro-N-{(1S)-2-hydroxy-2-isobutyl-4-methyl-1-[(1S)-1-methylpropyl]pentyl}benzenesulfonamide]
- (%)APPI Toxicity ([1]; Conc 10 μg/ml): 1 (1=non-toxic)
- fold induction at 10 µg/mL [2, 3]: 1.8

SMILES: CCCCCC(O)[C@@H](NS(=O)(=O)c1cccc(Cl)c1)[C@@H](C)CC (stereo partly drawn) [Example 188, 3-chloro-N-{(1S)-2-hydroxy-1-[(1S)-1-methylpropyl]heptyl}benzenesulfonamide]
- (%)APPI Toxicity ([1]; Conc 10 μg/ml): 1 (1=non-toxic)
- fold induction at 10 µg/mL [2, 3]: 3.54

SMILES: CCCCCC(O)[C@@H](NS(=O)(=O)c1ccccc1F)[C@@H](C)CC (stereo partly drawn) [Example 204, 2-fluoro-N-{(1S)-2-hydroxy-1-[(1S)-1-methylpropyl]heptyl}benzenesulfonamide]
- (%)APPI Toxicity ([1]; Conc 10 μg/ml): 1 (1=non-toxic)
- fold induction at 10 µg/mL [2, 3]: 3.73

SMILES: CCCCC[C@H](C)[C@@H](CO)NS(=O)(=O)c1ccc(Cl)cc1 [Example 60, 4-chloro-N-[(1S,2S)-1-(hydroxymethyl)-2-methylheptyl]benzenesulfonamide]
- (%)APPI Toxicity [1, 4]: 1 (1=non-toxic)
- fold induction at 20 µg/mL [2, 5]: 4.6

SMILES: CCCCCC[C@@H](C)[C@@H](CO)NS(=O)(=O)c1ccc(Cl)cc1 [Example 50, 4-chloro-N-[(1S,2R)-1-(hydroxymethyl)-2-methyloctyl]benzenesulfonamide]
- (%)APPI Toxicity ([1]; Conc 20 μg/ml): 1 (1=non-toxic)
- fold induction at 20 µg/mL [2, 6]: 2.5

SMILES: CCCCCC[C@@H](CCC)[C@@H](CO)NS(=O)(=O)c1ccc(Cl)cc1 [Example 58, 4-chloro-N-[(1S,2R)-1-(hydroxymethyl)-2-propyloctyl]benzenesulfonamide]
- (%)APPI Toxicity [1, 4]: 1 (1=non-toxic)
- fold induction at 20 µg/mL [2, 5]: 2.6

SMILES: CCCCC(CO)NS(=O)(=O)c1ccc(Br)cc1 (centres unmarked) [Example 99, 4-bromo-N-[1-(hydroxymethyl)pentyl]benzenesulfonamide]
- (%)APPI Toxicity ([1]; Conc 20 μg/ml): 1 (1=non-toxic)
- fold induction at 20 µg/mL [2, 6]: 1.7

SMILES: O=S(=O)(NC1(CO)CCc2ccccc21)c1ccc(Br)cc1 (centres unmarked) [Example 122, 4-bromo-N-[1-(hydroxymethyl)-2,3-dihydro-1H-inden-1-yl]benzenesulfonamide]
- (%)APPI Toxicity ([1]; Conc 20 μg/ml): 1 (1=non-toxic)
- fold induction at 20 µg/mL [2, 6]: 1.5

SMILES: CC[C@H](C)[C@@H](CO)NS(=O)(=O)c1cccc2ccccc12 [Example 12, N-[(1S,2S)-1-(hydroxymethyl)-2-methylbutyl]naphthalene-1-sulfonamide]
- (%)APPI Toxicity ([1]; Conc 20 μg/ml): 1 (1=non-toxic)
- fold induction at 20 µg/mL [2, 6]: 2.9

SMILES: CCC[C@H](c1ccc(OC)cc1)[C@@H](CO)NS(=O)(=O)c1ccc(Cl)cc1 [Example 57, 4-chloro-N-[(1S,2R)-1-(hydroxymethyl)-2-(4-methoxyphenyl)pentyl]benzenesulfonamide]
- (%)APPI Toxicity [1, 4]: 1 (1=non-toxic)
- fold induction at 20 µg/mL [2, 5]: 1.7

SMILES: CC[C@H](C)[C@H](NS(=O)(=O)c1cccc(Cl)c1)C(O)(c1ccccc1)c1ccccc1 [Example 253, 3-chloro-N-{(1S,2S)-1-[hydroxy(diphenyl)methyl]-2-methylbutyl}benzenesulfonamide]
- (%)APPI Toxicity ([1]; Conc 10 μg/ml): 1 (1=non-toxic)
- fold induction at 10 µg/mL [2, 3]: 1.61

SMILES: CC[C@H](C)[C@@H](CO)NS(=O)(=O)c1cccc(Br)c1 [Example 2, 3-bromo-N-[(1S,2S)-1-(hydroxymethyl)-2-methylbutyl]benzenesulfonamide]
- (%)APPI Toxicity ([1]; Conc 20 μg/ml): 1 (1=non-toxic)
- fold induction at 20 µg/mL [2, 6]: 2.8

SMILES: C=CCC(O)(CC=C)[C@@H](NS(=O)(=O)c1ccc(F)cc1)[C@@H](C)CC [Example 241, N-{(1S)-2-allyl-2-hydroxy-1-[(1S)-1-methylpropyl]-4-pentenyl}-4-fluoro benzenesulfonamide]
- (%)APPI Toxicity ([1]; Conc 10 μg/ml): 1 (1=non-toxic)
- APPI Fold Increase ([2]; Conc 10 μg/ml, luciferase activity over diluent control): 1.58 fold
- APPI % of Example #98 ([2]; Conc 10 μg/ml, relative to Example 98): 72.82%

SMILES: CCC[C@H](CC)[C@@H](CO)NS(=O)(=O)c1ccc(Br)cc1 [Example 77, 4-bromo-N-[(1S,2S)-2-ethyl-1-(hydroxymethyl)pentyl]benzenesulfonamide]
- (%)APPI Toxicity [1, 4]: 1 (1=non-toxic)
- fold induction at 20 µg/mL [2, 5]: 5.9

SMILES: CC[C@H](C)[C@H](NS(=O)(=O)c1cccc(Cl)c1)C(C)O (stereo partly drawn) [Example 185, 3-chloro-N-[(1S,2S)-1-(1-hydroxyethyl)-2-methylbutyl]benzenesulfonamide]
- (%)APPI Toxicity ([1]; Conc 10 μg/ml): 1 (1=non-toxic)
- fold induction at 10 µg/mL [2, 3]: 1.51

SMILES: CC[C@@H](C)[C@@H](CO)NS(=O)(=O)c1ccc(Br)cc1 [Example 36, 4-bromo-N-[(1S,2R)-1-(hydroxymethyl)-2-methylbutyl]benzenesulfonamide]
- (%)APPI Toxicity ([1]; Conc 1 μg/ml): 1 (1=non-toxic)
- (%)APPI Toxicity ([1]; Conc 3 μg/ml): 1 (1=non-toxic)
- (%)APPI Toxicity ([1]; Conc 10 μg/ml): 1 (1=non-toxic)
- (%)APPI Toxicity ([1]; Conc 20 μg/ml): 1 (1=non-toxic)
- fold induction at 1 µg/mL ([2]; Conc 1 μg/ml, luciferase activity over diluent control, read-out: APPI Fold Increase): 1.6
- fold induction at 3 µg/mL [2, 6]: 2.05
- fold induction at 10 µg/mL [2, 3]: 3.33
- fold induction at 20 µg/mL [2, 6]: 6.4

SMILES: CC[C@@H](c1ccco1)[C@@H](CO)NS(=O)(=O)c1ccc(Br)cc1 [Example 85, 4-bromo-N-[(1S,2R)-2-(2-furyl)-1-(hydroxymethyl)butyl]benzenesulfonamide]
- (%)APPI Toxicity [1, 4]: 1 (1=non-toxic)
- fold induction at 20 µg/mL [2, 5]: 3.4

SMILES: CCCCC(O)[C@@H](NS(=O)(=O)c1ccc(F)cc1)[C@@H](C)CC (stereo partly drawn) [Example 130, 4-fluoro-N-{(1S)-2-hydroxy-1-[(1S)-1-methylpropyl]hexyl}benzenesulfonamide]
- (%)APPI Toxicity ([1]; Conc 10 μg/ml): 1 (1=non-toxic)
- fold induction at 10 µg/mL [2, 3]: 2.4

SMILES: C/C=C(\C)C(O)(/C(C)=C/C)[C@@H](NS(=O)(=O)c1ccccc1F)[C@@H](C)CC (stereo partly drawn) [Example 270, 2-fluoro-N-{(1S,3E)-2-hydroxy-3-methyl-2-[(1E)-1-methyl-1-propenyl]-1-[(1S)-1-methylpropyl]-3-pentenyl}benzenesulfonamide]
- (%)APPI Toxicity ([1]; Conc 10 μg/ml): 1 (1=non-toxic)
- fold induction at 10 µg/mL [2, 3]: 1.86

SMILES: CC[C@H](c1ccc(OC)cc1)[C@@H](CO)NS(=O)(=O)c1ccc(Br)cc1 [Example 74, 4-bromo-N-[(1S,2R)-1-(hydroxymethyl)-2-(4-methoxyphenyl)butyl]benzenesulfonamide]
- (%)APPI Toxicity [1, 4]: 1 (1=non-toxic)
- fold induction at 20 µg/mL [2, 5]: 2.5

SMILES: CC[C@@H](C)[C@@H](CO)NS(=O)(=O)c1ccc(Cl)cc1 [Example 39, 4-chloro-N-[(1S,2R)-1-(hydroxymethyl)-2-methylbutyl]benzenesulfonamide]
- (%)APPI Toxicity ([1]; Conc 3 μg/ml): 1 (1=non-toxic)
- (%)APPI Toxicity ([1]; Conc 10 μg/ml): 1 (1=non-toxic)
- (%)APPI Toxicity ([1]; Conc 20 μg/ml): 1 (1=non-toxic)
- fold induction at 3 µg/mL [2, 6]: 1.56
- fold induction at 10 µg/mL [2, 3]: 2.47
- fold induction at 20 µg/mL [2, 6]: 5.5

SMILES: CCC(O)[C@@H](NS(=O)(=O)c1cccc(Cl)c1)[C@@H](C)CC (stereo partly drawn) [Example 195, 3-chloro-N-{(1S)-2-hydroxy-1-[(1S)-1-methylpropyl]butyl}benzenesulfonamide]
- (%)APPI Toxicity ([1]; Conc 10 μg/ml): 1 (1=non-toxic)
- fold induction at 10 µg/mL [2, 3]: 2.16

SMILES: CC[C@H](C)[C@H](NS(=O)(=O)c1ccc(F)cc1)C(O)(CC)CC [Example 242, N-{(1S)-2-ethyl-2-hydroxy-1-[(1S)-1-methylpropyl]butyl}-4-fluorobenzenesulfonamide]
- (%)APPI Toxicity ([1]; Conc 10 μg/ml): 1 (1=non-toxic)
- fold induction at 10 µg/mL [2, 3]: 1.6

SMILES: CC(C)C[C@H](CO)NS(=O)(=O)c1ccc(Br)cc1 [Example 102, 4-bromo-N-[(1R)-1-(hydroxymethyl)-3-methylbutyl]benzenesulfonamide]
- (%)APPI Toxicity ([1]; Conc 20 μg/ml): 1 (1=non-toxic)
- fold induction at 20 µg/mL [2, 6]: 1.5

SMILES: CC[C@H](C)[C@H](NS(=O)(=O)c1cccc(Cl)c1)C(O)CC(C)C (stereo partly drawn) [Example 192, 3-chloro-N-{(1S)-2-hydroxy-4-methyl-1-[(1S)-1-methylpropyl]pentyl}benzenesulfonamide]
- (%)APPI Toxicity ([1]; Conc 10 μg/ml): 1 (1=non-toxic)
- fold induction at 10 µg/mL [2, 3]: 2.21

SMILES: CC#CC(O)[C@@H](NS(=O)(=O)c1ccc(Br)cc1)[C@@H](C)CC (stereo partly drawn) [Example 162, 4-bromo-N-{(1S)-2-hydroxy-1-[(1S)-1-methylpropyl]-3-pentynyl}benzenesulfonamide]
- (%)APPI Toxicity ([1]; Conc 10 μg/ml): 1 (1=non-toxic)
- fold induction at 10 µg/mL [2, 3]: 1.63

Reference: patent US7166622B2, “Substituted phenylsulfonamide inhibitors of beta amyloid production” (Wyeth, priority 2002, dated 2007)
